Source: patent publication US20230192657A1, “1,2,4-TRIAZOLINONE CB1 INHIBITORS” (Goldfinch Bio, Inc., priority 2020, published 2023)

biological target: CB1 receptor (Homo sapiens, UniProt P21554); experiment: CB1 cAMP Antagonist Assay (LANCE Ultra cAMP kit); type: cell-based; conditions: Flp-In CHO cells stably expressing the CB1 receptor; forskolin and CP55940 agonist at EC90; cAMP FRET readout
From the text: CB1 cAMP Antagonist Assay
LANCE Ultra cAMP kit (Perkin Elmer) was used to quantitate the amount of 3′,5′-cyclic adenosine monophosphate (cAMP) produced in Flp-In CHO (Invitrogen) cells stably expressing the CB1 receptor.
Forskolin was initially titrated to determine the response of the cells. The EC90 of forskolin was used for compound testing. CP55940 was titrated and used with EC90 of forskolin to determine the level of agonist stimulation. EC90 of the agonist was used for subsequent compound testing.
Forskolin (Sigma), CP55940 (Cayman Chemicals), and AM251 (MCE) were diluted in 100% DMSO, starting at 100 mM, 1 mM, and 1 mM respectively, in 3-fold serial dilutions. Test compounds were diluted in 100% DMSO starting from 10 mM, 3-fold dilutions. The cAMP assay buffer contains 1x Hank’s Buffered Saline Solution with Ca^2+ and Mg^2+ (Invitrogen), 5.3 mM HEPES (Invitrogen), 0.05% BSA, 0.5 mM IBMX (Sigma).
For all assays, cells were harvested, counted, and diluted in cAMP assay buffer to 1× 10^5 cells/mL. Only cells with viability >85% were used for the assay. Cells were seeded at 1000 cells/well in 384-well plates and 10 nL/well AM251 or test compound was added and incubated at 37° C. for 10 min. […] To detect the amount of cAMP produced, 5 µL of a 100x diluted stock of Eu-cAMP tracer and 5 µL of 200x diluted stock of Ulight-anti-cAMP were added to each well, and the plate incubated at 25° C. for 15 min. The FRET signal was read using an EnVision microplate reader (λex=320 nm, λem=615 nm and 665 nm).
The IC50 is determined by fitting the percentage of inhibition as a function of compound concentrations with the Hill equation, using a 4-parameter fit in either XLfit or GraphPad Prism.

Sequence of CB1 receptor (P21554 whole entry): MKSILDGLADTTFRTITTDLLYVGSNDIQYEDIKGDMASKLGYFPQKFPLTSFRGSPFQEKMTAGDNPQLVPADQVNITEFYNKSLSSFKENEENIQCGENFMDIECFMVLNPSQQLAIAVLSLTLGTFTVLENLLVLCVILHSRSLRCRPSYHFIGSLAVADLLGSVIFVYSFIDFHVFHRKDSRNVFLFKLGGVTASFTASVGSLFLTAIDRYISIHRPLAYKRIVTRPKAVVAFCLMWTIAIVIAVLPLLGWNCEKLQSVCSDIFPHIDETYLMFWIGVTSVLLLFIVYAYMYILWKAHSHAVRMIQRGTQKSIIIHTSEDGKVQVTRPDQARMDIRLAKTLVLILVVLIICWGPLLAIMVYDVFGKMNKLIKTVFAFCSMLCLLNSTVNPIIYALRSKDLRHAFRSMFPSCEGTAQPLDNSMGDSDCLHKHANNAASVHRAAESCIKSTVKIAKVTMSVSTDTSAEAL

Structure (SMILES)	IC50 [µM]
Cn1c(N2CC(c3ccccc3)C(c3ccc(Cl)cc3)=N2)nn(Cc2ccc(C#N)cc2)c1=O (stereo not drawn) [Compound 160]	< 0.1
Cn1c(N2C[C@H](c3ccccc3)C(c3ccc(Cl)cc3)=N2)nn(Cc2ccccc2)c1=O [Compound 169]	< 0.1
NC(=O)Cn1c(N2C[C@@]3(CCc4ccccc43)C(c3ccc(Cl)cc3)=N2)nn(CC2CCCCC2)c1=O [Compound 147, 2-[3-[(1S)-3-(4-chlorophenyl)-1,2,3,5-tetrahydrospiro[indene-1,4-pyrazol]-1-y1]-1-(cyclohexylmethyl)-5-oxo-4,5-dihydro-1H-1,2,4-triazol-4-yl]acetamide]	1 to 5
Cn1c(N2CC3(CCc4ccccc43)C(c3ccc(Cl)cc3)=N2)nn(CC2CCCCC2)c1=O (stereo in doubt) [Compound 139, 3-[(1S)-3-(4-chlorophenyl)-1,2,3,5-tetrahydrospiro[indene-1,4-pyrazol]-1-yl]-1-(cyclohexylmethyl)-4-methyl-4,5-dihydro-1H-1,2,4-triazol-5-one]	0.1 to 1
Cn1c(N2C[C@@H](c3ccccc3)C(c3ccc(Cl)cc3)=N2)nn(-c2ccc(Cl)cc2)c1=O [Compound 100]	> 5
NC(=O)Cn1c(N2C[C@]3(CCc4ccccc43)C(c3ccc(Cl)cc3)=N2)nn(-c2ccc(Cl)cc2)c1=O [Compound 124, 2-[1-(4-chlorophenyl)-3-[(1R)-3-(4-chlorophenyl)-1,2,3,5-tetrahydrospiro[indene-1,4-pyrazol]-1-yl]-5-oxo-4,5-dihydro-1H-1,2,4-triazol-4-yl]acetamide]	0.1 to 1
O=c1n(Cc2ccc(Cl)cc2)nc(N2CC3(CCc4ccccc43)C(c3ccc(Cl)cc3)=N2)n1CCO (stereo in doubt) [Compound 118, 3-[(1R)-3-(4-chlorophenyl)-1,2,3,5-tetrahydrospiro[indene-1,4-pyrazol]-1-yl]-1-[(4-chlorophenyl)methyl]-4-(2-hydroxyethyl)-4,5-dihydro-1H-1,2,4-triazol-5-one]	0.1 to 1
COCCn1c(N2CC3(CCc4ccccc43)C(c3ccc(Cl)cc3)=N2)nn(Cc2ccc(Cl)cc2)c1=O (stereo in doubt) [Compound 120, 3-[(1R)-3-(4-chlorophenyl)-1,2,3,5-tetrahydrospiro[indene-1,4-pyrazol]-1-yl]-1-[(4-chlorophenyl)methyl]-4-(2-methoxyethyl)-4,5-dihydro-1H-1,2,4-triazol-5-one]	1 to 5
Cn1c(N2C[C@]3(CCc4ccccc43)C(c3ccc(Cl)cc3)=N2)nn(-c2ccc(Cl)cc2)c1=O [Compound 109]	> 5
Cn1c(N2C[C@@]3(CCc4ccccc43)C(c3ccc(Cl)cc3)=N2)nn(Cc2ccc(Cl)cc2)c1=O [Compound 113]	1 to 5
NC(=O)CCn1c(N2CC3(CCc4ccccc43)C(c3ccc(Cl)cc3)=N2)nn(Cc2ccc(Cl)cc2)c1=O (stereo in doubt) [Compound 132, 3-[3-[(1R)-3-(4-chlorophenyl)-1,2,3,5-tetrahydrospiro[indene-1,4-pyrazol]-1-yl]-1-[(4-chlorophenyl)methyl]-5-oxo-4,5-dihydro-1H-1,2,4-triazol-4-yl]propanamide]	1 to 5
O=c1n(-c2ccc(Cl)cc2)nc(N2C[C@]3(CCc4ccccc43)C(c3ccc(Cl)cc3)=N2)n1CCO [Compound 114, 1-(4-chlorophenyl)-3-[(1R)-3-(4-chlorophenyl)-1,2,3,5-tetrahydrospiro[indene-1,4-pyrazol]-1-yl]-4-(2-hydroxyethyl)-4,5-dihydro-1H-1,2,4-triazol-5-one]	0.1 to 1

The next lines start with the values.

IC50 [µM]	Structure (SMILES)
< 0.1	C[C@H](C(N)=O)n1c(N2C[C@H](c3ccccc3)C(c3ccc(Cl)cc3)=N2)nn(Cc2ccc(Cl)cn2)c1=O [Compound 205]
0.1 to 1	C[C@H](C(=O)NCCO)n1c(N2C[C@@H](c3ccccc3)C(c3ccc(Cl)cc3)=N2)nn(Cc2ccc(Cl)cc2)c1=O [Compound 191, (2R)-2-[3-[(4R)-3-(4-chlorophenyl)-4-phenyl-4,5-dihydropyrazol-1-yl]-1-[(4-chlorophenyl)methyl]-5-oxo-1,2,4-triazol-4-yl]-N-(2-hydroxyethyl)propanamide]
> 5	O=c1[nH]nc(N2C[C@@H](c3ccccc3)C(c3ccc(Cl)cc3)=N2)[nH]1 [Compound 208, 5-[(4R)-3-(4-chlorophenyl)-4-phenyl-4,5-dihydropyrazol-1-yl]-2,4-dihydro-1,2,4-triazol-3-one]
< 0.1	C[C@H](c1ccc(Cl)cc1)n1nc(N2C[C@H](c3ccccc3)C(c3ccc(Cl)cc3)=N2)n(CC(N)=O)c1=O [Compound 154]
1 to 5	Cn1c(N2C[C@H](c3ccccc3)C(c3ccc(Cl)cc3)=N2)n[nH]c1=O [Compound 172, 5-[(4S)-3-(4-chlorophenyl)-4-phenyl-4,5-dihydropyrazol-1-yl]-4-methyl-2H-1,2,4-triazol-3-one]
> 5	C[C@H](C(N)=O)n1c(N2C[C@@H](c3ccccc3)C(c3ccc(Cl)cc3)=N2)nn(Cc2ccc(CN3CCOCC3)cc2)c1=O [Compound 164]
< 0.1	Cn1c(N2CC(c3ccccc3)C(c3ccc(Cl)cc3)=N2)nn(Cc2cccc(C#N)c2)c1=O (stereo not drawn) [Compound 170]
< 0.1	Cn1c(N2C[C@@H](c3ccccc3)C(c3ccc(Cl)cc3)=N2)nn(Cc2ccc(Cl)cc2)c1=O [Compound 103]
> 5	C[C@H](C(N)=O)n1c(N2C[C@@H](c3ccccc3)C(c3ccc(Cl)cc3)=N2)nn(Cc2ccc(Cl)cc2)c1=O [Compound 180]
0.1 to 1	Cc1ncc(Cn2nc(N3CC(c4ccccc4)C(c4ccc(Cl)cc4)=N3)n(C)c2=O)cn1 (stereo not drawn) [Compound 196]
0.1 to 1	COc1ccc(Cn2nc(N3CC(c4ccccc4)C(c4ccc(Cl)cc4)=N3)n([C@@H](C)C(N)=O)c2=O)cc1OC (stereo partly drawn) [Compound 194, (2S)-2-[3-[3-(4-chlorophenyl)-4-phenyl-4,5-dihydropyrazol-1-yl]-1-[(3,4-dimethoxyphenyl)methyl]-5-oxo-1,2,4-triazol-4-yl]propanamide]
< 0.1	Cc1cc(Cn2nc(N3CC(c4ccccc4)C(c4ccc(Cl)cc4)=N3)n(C)c2=O)ccc1Cl (stereo not drawn) [Compound 178]
< 0.1	C[C@H](C(N)=O)n1c(N2C[C@H](c3ccccc3)C(c3ccc(Cl)cc3)=N2)nn(Cc2ccc(Cl)cc2)c1=O [Compound 174]
0.1 to 1	C[C@@H](c1ccc(Cl)cc1)n1nc(N2CC(c3ccccc3)C(c3ccc(Cl)cc3)=N2)n(CC(N)=O)c1=O (stereo in doubt) [Compound 150, 2-[3-[(4S)-3-(4-chlorophenyl)-4-phenyl-4,5-dihydropyrazol-1-yl]-1-[(1S)-1-(4-chlorophenyl)ethyl]-5-oxo-1,2,4-triazol-4-yl]acetamide]
< 0.1	Cn1c(N2CC(c3ccccc3)C(c3ccc(Cl)cc3)=N2)nn(Cc2ccccc2Cl)c1=O (stereo not drawn) [Compound 171]
0.1 to 1	COC(=O)c1cccc(Cn2nc(N3CC(c4ccccc4)C(c4ccc(Cl)cc4)=N3)n(C)c2=O)c1 (stereo not drawn) [Compound 189]
1 to 5	Cn1c(N2C[C@]3(CCc4ccccc43)C(c3ccc(Cl)cc3)=N2)nn(Cc2ccc(Cl)cc2)c1=O [Compound 115, 3-[(1R)-3-(4-chlorophenyl)-1,2,3,5-tetrahydrospiro[indene-1,4-pyrazol]-1-y1]-1-[(4-chlorophenyl)methyl]-4-methyl-4,5-dihydro-1H-1,2,4-triazol-5-one]
> 5	CN1CCN(Cc2ccc(Cn3nc(N4C[C@@H](c5ccccc5)C(c5ccc(Cl)cc5)=N4)n(C)c3=O)cc2)CC1 [Compound 135]
